Results taken from article PMC7665585, “Antidepressive effect of an inward rectifier K^+ channel blocker peptide, tertiapin-RQ” (PLoS ONE, 2020).
“Also recorded” adds a separate entry of the source. Bridge positions count the residues as written; N and C are the ends. Ends that are not written are not given here. Peptide text beside a SMILES is read from it.

The molecules below were run against T1, rat ROMK (Rattus norvegicus, UniProt P35560) (assay: Whole-cell patch-clamp of ROMK currents in 208–4 cells). Details: blockade at 1 μM estimated from fitted Hill curve (four parameters), whole-cell conductance, n = 3–6.
T1 construct: expressed in transfected cells; host or cells: 293T cell line 208-4 (lentiviral transduction, GFP coexpressed)
T1 sequence (P35560 1-391): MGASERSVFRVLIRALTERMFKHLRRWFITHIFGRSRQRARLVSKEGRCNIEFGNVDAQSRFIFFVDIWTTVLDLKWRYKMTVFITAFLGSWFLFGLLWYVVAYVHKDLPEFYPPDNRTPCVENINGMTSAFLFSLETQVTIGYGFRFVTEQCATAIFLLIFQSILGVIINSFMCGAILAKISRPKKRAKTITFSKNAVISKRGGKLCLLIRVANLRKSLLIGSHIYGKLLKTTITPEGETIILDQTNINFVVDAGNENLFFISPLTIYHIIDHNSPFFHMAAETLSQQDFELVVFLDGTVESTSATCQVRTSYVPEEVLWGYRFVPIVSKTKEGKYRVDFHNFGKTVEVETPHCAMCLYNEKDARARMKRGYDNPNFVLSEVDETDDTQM
Type: cell-based
Summary of the method: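 ROMK stably expressed in 208–4 cells; GIRK transiently in 293T, recorded 24 h post-transfection; 25°C, Tyrode (high-K+ 50 mM for GIRK), K-aspartate/KCl pipette with 3 mM MgATP. Steps −150 to 10 mV from −70 mV; currents 60 s after peptide; conductance from I-V slope −140 to −100 mV, Ba2+-resistant current subtracted, normalized to 0 μM TPN.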
In the case of “TPN 1–8 (ALCNCNRI) [Peptide 4, Partial TPN peptide (8 amino acids)]”, the “Activity (ROMK channel blocking activity, percentage of blockade at 1 μM)” value is reported as “- (-, <20%)”.
In the case of TPN 2–9 [Peptide 5], the “Activity (ROMK channel blocking activity, percentage of blockade at 1 μM)” value is reported as “- (-, <20%)”.
For TPN 3–10 [Peptide 6], the “Activity (ROMK channel blocking activity, percentage of blockade at 1 μM)” value was “- (-, <20%)”.
For TPN 11–18 [Peptide 14], the “Activity (ROMK channel blocking activity, percentage of blockade at 1 μM)” value was “- (-, <20%)”.
In the case of TPN 12–19 [Peptide 15], the “Activity (ROMK channel blocking activity, percentage of blockade at 1 μM)” value is reported as “- (-, <20%)”.
For TPN 13–20 [Peptide 16], the “Activity (ROMK channel blocking activity, percentage of blockade at 1 μM)” value was “- (-, <20%)”.
In the case of TPN 14–21 [Peptide 17], the “Activity (ROMK channel blocking activity, percentage of blockade at 1 μM)” value is reported as “- (-, <20%)”.
For TPN-RQ(C3S) [Peptide 45], the “Activity (ROMK channel blocking activity, percentage of blockade at 1 μM)” value was “- (-, <20%)”.
In the case of TPN-RQ(C5S) [Peptide 46], the “Activity (ROMK channel blocking activity, percentage of blockade at 1 μM)” value is reported as “- (-, <20%)”.
In the case of TPN-RQ(C14S) [Peptide 47], the “Activity (ROMK channel blocking activity, percentage of blockade at 1 μM)” value is reported as “- (-, <20%)”.
In the case of TPN-RQ(C18S) [Peptide 48], the “Activity (ROMK channel blocking activity, percentage of blockade at 1 μM)” value is reported as “- (-, <20%)”.
For TPN-RQ(Ins9I) [Peptide 54], the “Activity (ROMK channel blocking activity, percentage of blockade at 1 μM)” value was “- (-, <20%)”.

Same assay, conditions: blockade at 1 μM estimated from fitted Hill curve (four parameters), whole-cell conductance, n = 3–6, read-out: Activity (ROMK channel blocking activity, percentage of blockade at 1 μM)
With `CC[C@H](C)[C@@H]1NC(=O)[C@H](CCCNC(=N)N)NC(=O)[C@H](CCCNC(=N)N)NC(=O)[C@H](CC(N)=O)NC(=O)[C@@H]2CSSC[C@@H](C(=O)NCC(=O)N[C@@H](C)C(=O)N[C@@H](CCCCN)C(N)=O)NC(=O)[C@H](CCCCN)NC(=O)[C@H](CCCCN)NC(=O)[C@H](Cc3c[nH]c4ccccc34)NC(=O)[C@H](CSSC[C@H](NC(=O)[C@H](CC(C)C)NC(=O)[C@H](C)N)C(=O)N[C@@H](CC(N)=O)C(=O)N2)NC(=O)[C@H](CCC(N)=O)NC(=O)[C@H](Cc2c[nH]cn2)NC(=O)[C@@H]2CCCN2C(=O)[C@H]([C@@H](C)CC)NC1=O` [Peptide 68, TPN-RQ(K20A)] (H-ALCNCNRRIIPHQCWKKCGAK-NH2; disulfide 3-14, 5-18) the inhibition at 1 µM was 40 to 60%.
`CC[C@H](C)[C@@H]1NC(=O)[C@H](CCCNC(=N)N)NC(=O)[C@H](CCCNC(=N)N)NC(=O)[C@H](CC(N)=O)NC(=O)[C@@H]2CSSC[C@@H](C(=O)NCC(=O)N[C@@H](CCCCN)C(=O)N[C@@H](C)C(N)=O)NC(=O)[C@H](CCCCN)NC(=O)[C@H](CCCCN)NC(=O)[C@H](Cc3c[nH]c4ccccc34)NC(=O)[C@H](CSSC[C@H](NC(=O)[C@H](CC(C)C)NC(=O)[C@H](C)N)C(=O)N[C@@H](CC(N)=O)C(=O)N2)NC(=O)[C@H](CCC(N)=O)NC(=O)[C@H](Cc2c[nH]cn2)NC(=O)[C@@H]2CCCN2C(=O)[C@H]([C@@H](C)CC)NC1=O` [Peptide 69, TPN-RQ(K21A)] (H-ALCNCNRRIIPHQCWKKCGKA-NH2; disulfide 3-14, 5-18) was tested, and the inhibition at 1 µM was 40 to 60%.
For `CC[C@H](C)[C@@H]1NC(=O)[C@H](CCCNC(=N)N)NC(=O)[C@H](CCCNC(=N)N)NC(=O)[C@H](CC(N)=O)NC(=O)[C@@H]2CSSC[C@@H](C(=O)NCC(=O)N[C@@H](CCCCN)C(=O)N[C@@H](CCCCN)C(N)=O)NC(=O)[C@H](CCCCN)NC(=O)[C@H](CCCCN)NC(=O)[C@H](Cc3c[nH]c4ccccc34)NC(=O)[C@H](CSSC[C@H](N)C(=O)N[C@@H](CC(N)=O)C(=O)N2)NC(=O)[C@H](CCC(N)=O)NC(=O)[C@H](Cc2c[nH]cn2)NC(=O)[C@@H]2CCCN2C(=O)[C@H]([C@@H](C)CC)NC1=O` [Peptide 70, TPN-RQ(Δ1A/Δ2L)] (H-CNCNRRIIPHQCWKKCGKK-NH2; disulfide 1-12, 3-16), the inhibition at 1 µM was 60 to 80%.
Work on `CC[C@H](C)[C@@H]1NC(=O)[C@H](CCCNC(=N)N)NC(=O)[C@H](CCCNC(=N)N)NC(=O)[C@H](CC(N)=O)NC(=O)[C@@H]2CSSC[C@@H](C(=O)NCC(N)=O)NC(=O)[C@H](CCCCN)NC(=O)[C@H](CCCCN)NC(=O)[C@H](Cc3c[nH]c4ccccc34)NC(=O)[C@H](CSSC[C@H](NC(=O)[C@H](CC(C)C)NC(=O)[C@H](C)N)C(=O)N[C@@H](CC(N)=O)C(=O)N2)NC(=O)[C@H](CCC(N)=O)NC(=O)[C@H](Cc2c[nH]cn2)NC(=O)[C@@H]2CCCN2C(=O)[C@H]([C@@H](C)CC)NC1=O` [Peptide 71, TPN-RQ(Δ20K/Δ21K)] (H-ALCNCNRRIIPHQCWKKCG-NH2; disulfide 3-14, 5-18) yielded an inhibition at 1 µM of 20 to 40%.
Molecule “ARIIPHQK-NH2 [Peptide 23, TPN-RQ 7-13(R7A) + K]” has an inhibition at 1 µM of less than 20%.
CNRIIIPH-NH2 [Peptide 8, TPN 5–12] gave an inhibition at 1 µM of less than 20%.
IIIPHMCW-NH2 [Peptide 11, TPN 8–15] was tested, and the inhibition at 1 µM was less than 20%.
In the case of IIPHMCWK-NH2 [Peptide 12, TPN 9–16], the inhibition at 1 µM is reported as less than 20%.
In the case of IPHMCWKK-NH2 [Peptide 13, TPN 10–17], the inhibition at 1 µM is reported as less than 20%.
With NCNRIIIP-NH2 [Peptide 7, TPN 4–11] the inhibition at 1 µM was less than 20%.
Work on NRIIIPHM-NH2 [Peptide 9, TPN 6–13] yielded an inhibition at 1 µM of less than 20%.
For “RAIIPHQK-NH2 [Peptide 24, TPN-RQ 7-13(R8A) + K]”, the inhibition at 1 µM was less than 20%.
Molecule RIIIPHMC-NH2 [Peptide 10, TPN 7–14] has an inhibition at 1 µM of less than 20%.
Molecule RIIIPHQC-NH2 [Peptide 18, TPN-Q 7–14] has an inhibition at 1 µM of less than 20%.
Molecule “RIIIPHQK-NH2 [Peptide 21, TPN-Q 7–13 + K]” has an inhibition at 1 µM of less than 20%.
“RRAIPHQK-NH2 [Peptide 25, TPN-RQ 7-13(I9A) + K]” showed an inhibition at 1 µM of less than 20%.
In the case of “RRIAPHQK-NH2 [Peptide 26, TPN-RQ 7-13(I10A) + K]”, the inhibition at 1 µM is reported as less than 20%.
“RRIIAHQK-NH2 [Peptide 27, TPN-RQ 7-13(P11A) + K]” gave an inhibition at 1 µM of less than 20%.
Work on “RRIIPAQK-NH2 [Peptide 28, TPN-RQ 7-13(H12A) + K]” yielded an inhibition at 1 µM of less than 20%.
For “RRIIPHAK-NH2 [Peptide 29, TPN-RQ 7-13(Q13A) + K]”, the inhibition at 1 µM was less than 20%.
RRIIPHMC-NH2 [Peptide 19, TPN-R 7–14] showed an inhibition at 1 µM of less than 20%.
RRIIPHQC-NH2 [Peptide 20, TPN-RQ 7–14] showed an inhibition at 1 µM of less than 20%.
Work on “RRIIPHQK-NH2 [Peptide 22, TPN-RQ 7–13 + K]” yielded an inhibition at 1 µM of less than 20%.

Same assay, conditions: whole-cell recordings
In the case of TPN-RQ(C5S) [Peptide 46], the “ROMK blocking activity (in words)” value is reported as “little blocking activity; also recorded: scarcely blocked the channel”.
With TPN-RQ(Ins9I) [Peptide 54] the “ROMK blocking activity (in words)” value was “abolished the activity”.

Same assay, conditions: whole-cell recordings, listed as TPN-C3S
For TPN-RQ(C3S) [Peptide 45], the “ROMK blocking activity (in words)” value was “little blocking activity; also recorded: scarcely blocked the channel”.

These molecules were tested on Male ICR mice (assay: Tail suspension test (TST)). Details: 750 pmole i.c.v., 30 min before test, 5 min recording.
Type: in vivo, mouse
Experimental: We performed mouse behavioral experiments in accordance with our previous study. Male ICR mice (n = 199 in total) aged 5 weeks old were purchased from Shimizu Laboratory Supplies (Kyoto, Japan) and maintained in an animal facility for 7–12 days. They had free access to food and water and were kept in a 12-h light/dark cycle (08:00–20:00). Experiments were carried out between 11:00 and 17:00 in a quiet and air-conditioned experimental room, to which mice were habituated for 30–60 min before each experiment. Animal experiments were performed in accordance with the guidelines of the Physiological Society of Japan and were approved by the Committee for Animal Experiments of Kurashiki University of Science and the Arts. Peptides were dissolved in phosphate-buffered saline (PBS). Peptides were injected intracerebroventricularly (i.c.v.) 30 min before behavioral tests (typically 5 μL/mouse), according to a previous study. The mouse was placed into an anesthetizing jar, to which isoflurane (0.2 mL) was added immediately before. After confirming that the mouse was deeply anesthetized we injected the peptide into the right cerebral ventricle over 30 seconds and the injection needle was kept for 1 min after the injection (i.c.v. coordinates: 0 mm caudal to bregma, 1.0 mm lateral to the midline, and 3.5 mm below the skull). The mouse was placed in a cage set on a heating pad (approximately 33°C) for a few minutes until it spontaneously started to move, and then it was put back into its home cage. Each animal was used only once, except for the wheel running test, which was carried out immediately after the elevated plus-maze.
The tail suspension test (TST) was performed in accordance with the method reported previously. The mouse was hung on a hook using adhesive tape placed 2 cm from the extremity of its tail 50 cm above a table. The amount of time spent immobile was recorded for 5 min.
TPN-RQ(C3S) [Peptide 45] was tested, and the “immobile time in TST” value was “decreased the immobile time insignificantly”.

Same assay, conditions: i.c.v., 5 μL of 20 mM in dimethyl sulfoxide, n = 4 and 5
`O=[N+]([O-])c1ccc2nc(COCc3nc4ccc([N+](=O)[O-])cc4[nH]3)[nH]c2c1` [VU591] was tested, and the “immobile time in TST” value was “significantly decreased the immobile time”.

The molecules below were run on Male ICR mice (assay: Forced swim test (FST)). Details: i.c.v., 30 min before test, last 4 min of 6 min.
Type: in vivo, mouse
Experimental: We performed mouse behavioral experiments in accordance with our previous study. Male ICR mice (n = 199 in total) aged 5 weeks old were purchased from Shimizu Laboratory Supplies (Kyoto, Japan) and maintained in an animal facility for 7–12 days. They had free access to food and water and were kept in a 12-h light/dark cycle (08:00–20:00). Experiments were carried out between 11:00 and 17:00 in a quiet and air-conditioned experimental room, to which mice were habituated for 30–60 min before each experiment. Animal experiments were performed in accordance with the guidelines of the Physiological Society of Japan and were approved by the Committee for Animal Experiments of Kurashiki University of Science and the Arts. Peptides were dissolved in phosphate-buffered saline (PBS). Peptides were injected intracerebroventricularly (i.c.v.) 30 min before behavioral tests (typically 5 μL/mouse), according to a previous study. The mouse was placed into an anesthetizing jar, to which isoflurane (0.2 mL) was added immediately before. […]
The forced swim test (FST) was performed in accordance with the method reported previously. […] The mouse was allowed to swim for 6 min and its activity was measured. […]
For TPN-RQ(C3S) [Peptide 45], the “immobile time in FST” value was “decreased the immobile time insignificantly”.
